Test results reported in the kinase profiling compilation of Christmann-Franck et al. (2016).

Key:
Assay in all cases: KINOMEscan competition binding
[1] = target: NTRK1 (human) (UniProt P04629)
[2] = tested on: CPK1 (P.falciparum)
[3] = target: TGFBR2 (human) (UniProt P37173)
[4] = target: NEK4 (human) (UniProt P51957)
[5] = target: CSNK1G1 (human) (UniProt Q9HCP0)
[6] = target: MELK (human) (UniProt Q14680)
[7] = target: CSK (human) (UniProt P41240)
[8] = target: DDR1 (human) (UniProt Q08345)
[9] = target: MAPK8 (human) (UniProt P45983)
[10] = target: EPHA1 (human) (UniProt P21709)
[11] = target: TAOK1 (human) (UniProt Q7L7X3)
[12] = target: CDK8 (human) (UniProt P49336)
[13] = target: FGFR1 (human) (UniProt P11362)
[14] = target: PRKCI (human) (UniProt P41743)
[15] = target: ADCK4 (human) (UniProt Q96D53)
Sequence of ADCK4 (human) (Q96D53 whole entry, looked up): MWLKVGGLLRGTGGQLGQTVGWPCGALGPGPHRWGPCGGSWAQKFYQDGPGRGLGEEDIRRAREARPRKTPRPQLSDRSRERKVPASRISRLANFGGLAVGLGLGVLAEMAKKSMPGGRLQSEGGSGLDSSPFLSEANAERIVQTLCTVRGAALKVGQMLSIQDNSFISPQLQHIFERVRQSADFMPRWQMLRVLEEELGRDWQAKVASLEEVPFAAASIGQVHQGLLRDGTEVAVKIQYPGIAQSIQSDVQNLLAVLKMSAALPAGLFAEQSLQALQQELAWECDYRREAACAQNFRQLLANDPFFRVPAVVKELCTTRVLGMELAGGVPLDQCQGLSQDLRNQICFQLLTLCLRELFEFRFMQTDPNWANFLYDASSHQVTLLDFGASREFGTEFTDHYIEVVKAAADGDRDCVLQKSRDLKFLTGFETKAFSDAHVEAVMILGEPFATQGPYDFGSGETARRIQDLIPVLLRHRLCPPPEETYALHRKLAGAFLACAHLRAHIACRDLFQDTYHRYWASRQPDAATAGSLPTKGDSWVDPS

[16] = target: WEE2 (human) (UniProt P0C1S8)
[17] = target: MYLK (human) (UniProt Q15746)
[18] = target: RPS6KA4 KD1 (human) (UniProt O75676)
Sequence of RPS6KA4 KD1 (human) (O75676 whole entry, looked up): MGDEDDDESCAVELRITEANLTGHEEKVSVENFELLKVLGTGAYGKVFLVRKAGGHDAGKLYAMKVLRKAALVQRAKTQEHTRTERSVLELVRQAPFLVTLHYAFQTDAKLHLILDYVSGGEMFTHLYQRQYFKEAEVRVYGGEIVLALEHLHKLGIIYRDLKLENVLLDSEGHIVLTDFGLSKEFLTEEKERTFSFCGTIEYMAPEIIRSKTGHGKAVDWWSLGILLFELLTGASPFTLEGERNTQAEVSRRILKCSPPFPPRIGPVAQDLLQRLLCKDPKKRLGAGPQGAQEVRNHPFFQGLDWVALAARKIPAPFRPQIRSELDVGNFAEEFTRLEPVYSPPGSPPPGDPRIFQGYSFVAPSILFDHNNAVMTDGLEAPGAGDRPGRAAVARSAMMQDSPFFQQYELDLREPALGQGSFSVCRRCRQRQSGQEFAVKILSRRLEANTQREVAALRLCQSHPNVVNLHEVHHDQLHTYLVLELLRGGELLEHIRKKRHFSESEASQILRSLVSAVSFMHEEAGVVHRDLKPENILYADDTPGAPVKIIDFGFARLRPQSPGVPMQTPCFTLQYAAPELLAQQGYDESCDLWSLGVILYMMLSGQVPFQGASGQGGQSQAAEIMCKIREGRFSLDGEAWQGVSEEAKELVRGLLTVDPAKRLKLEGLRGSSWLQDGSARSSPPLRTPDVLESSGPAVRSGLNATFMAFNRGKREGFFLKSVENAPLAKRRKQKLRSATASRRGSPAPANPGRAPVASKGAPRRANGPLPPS

[19] = target: PRKAA1 (human) (UniProt Q13131)
[20] = tested on: ABL1 (human), P00519 [M351T]
[21] = target: AAK1 (human) (UniProt Q2M2I8)
[22] = tested on: PIK3CA (human), P42336 [H1047Y]
[23] = target: NLK (human) (UniProt Q9UBE8)
Sequence of NLK (human) (Q9UBE8 whole entry, looked up): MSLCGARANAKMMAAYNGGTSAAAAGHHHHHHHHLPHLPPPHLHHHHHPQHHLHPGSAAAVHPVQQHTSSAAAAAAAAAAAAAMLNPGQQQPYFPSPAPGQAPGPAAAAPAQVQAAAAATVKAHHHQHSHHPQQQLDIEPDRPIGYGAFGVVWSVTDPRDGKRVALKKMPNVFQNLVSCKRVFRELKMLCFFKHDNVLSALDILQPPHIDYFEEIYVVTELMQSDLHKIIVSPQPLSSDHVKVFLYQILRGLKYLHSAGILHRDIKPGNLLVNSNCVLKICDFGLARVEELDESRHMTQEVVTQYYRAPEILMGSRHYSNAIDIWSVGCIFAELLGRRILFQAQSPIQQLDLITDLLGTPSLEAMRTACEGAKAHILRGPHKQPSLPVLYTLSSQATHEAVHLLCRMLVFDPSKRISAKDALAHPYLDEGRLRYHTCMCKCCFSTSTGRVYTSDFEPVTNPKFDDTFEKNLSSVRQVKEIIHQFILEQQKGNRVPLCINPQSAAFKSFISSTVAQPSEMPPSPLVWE

[24] = target: TEK (human) (UniProt Q02763)
[25] = tested on: ABL1 (human), P00519 [Y253F]
[26] = tested on: FLT3 (human), P36888 [D835Y]
[27] = tested on: EGFR (human), P00533 [L861Q]
[28] = target: BTK (human) (UniProt Q06187)
[29] = target: PRKD3 (human) (UniProt O94806)
[30] = target: SRPK3 (human) (UniProt Q9UPE1)
[31] = target: RPS6KA6 KD1 (human) (UniProt Q9UK32)
[32] = target: AURKB (human) (UniProt Q96GD4)
[33] = tested on: EGFR (human), P00533 [G719C]
[34] = target: ANKK1 (human) (UniProt Q8NFD2)
[35] = target: STK38L (human) (UniProt Q9Y2H1)
[36] = target: MAP4K2 (human) (UniProt Q12851)
[37] = target: CDKL5 (human) (UniProt O76039)
[38] = target: STK11 (human) (UniProt Q15831)
[39] = target: TNIK (human) (UniProt Q9UKE5)
[40] = target: CSF1R (human) (UniProt P07333)
Sequence of CSF1R (human) (P07333 whole entry, looked up): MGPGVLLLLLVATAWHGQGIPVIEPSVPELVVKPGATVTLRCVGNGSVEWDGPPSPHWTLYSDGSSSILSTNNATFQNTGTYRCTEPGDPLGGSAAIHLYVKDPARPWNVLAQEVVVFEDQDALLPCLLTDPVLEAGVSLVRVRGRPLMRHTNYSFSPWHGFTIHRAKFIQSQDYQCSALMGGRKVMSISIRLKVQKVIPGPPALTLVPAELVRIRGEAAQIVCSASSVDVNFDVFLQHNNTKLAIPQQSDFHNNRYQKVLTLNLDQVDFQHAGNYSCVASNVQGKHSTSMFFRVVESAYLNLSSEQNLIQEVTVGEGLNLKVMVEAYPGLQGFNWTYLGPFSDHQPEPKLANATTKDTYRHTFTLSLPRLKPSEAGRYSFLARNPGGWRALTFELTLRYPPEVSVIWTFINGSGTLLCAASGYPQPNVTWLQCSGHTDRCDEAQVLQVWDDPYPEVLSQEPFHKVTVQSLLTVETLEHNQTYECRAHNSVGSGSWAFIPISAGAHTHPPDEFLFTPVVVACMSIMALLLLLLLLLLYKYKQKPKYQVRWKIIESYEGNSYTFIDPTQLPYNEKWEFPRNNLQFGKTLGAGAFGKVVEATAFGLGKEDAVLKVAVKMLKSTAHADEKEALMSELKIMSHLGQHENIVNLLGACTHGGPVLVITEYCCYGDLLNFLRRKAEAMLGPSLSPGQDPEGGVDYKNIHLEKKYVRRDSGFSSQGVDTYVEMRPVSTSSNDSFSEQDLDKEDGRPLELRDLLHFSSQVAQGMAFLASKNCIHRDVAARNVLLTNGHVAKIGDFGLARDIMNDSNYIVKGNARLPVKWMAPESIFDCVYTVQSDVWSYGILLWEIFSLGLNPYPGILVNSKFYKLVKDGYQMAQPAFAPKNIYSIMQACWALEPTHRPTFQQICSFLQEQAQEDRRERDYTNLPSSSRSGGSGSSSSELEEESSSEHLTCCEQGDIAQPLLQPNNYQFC

[41] = target: PIP5K1A (human) (UniProt Q99755)
[42] = target: DAPK1 (human) (UniProt P53355)
Sequence of DAPK1 (human) (P53355 whole entry, looked up): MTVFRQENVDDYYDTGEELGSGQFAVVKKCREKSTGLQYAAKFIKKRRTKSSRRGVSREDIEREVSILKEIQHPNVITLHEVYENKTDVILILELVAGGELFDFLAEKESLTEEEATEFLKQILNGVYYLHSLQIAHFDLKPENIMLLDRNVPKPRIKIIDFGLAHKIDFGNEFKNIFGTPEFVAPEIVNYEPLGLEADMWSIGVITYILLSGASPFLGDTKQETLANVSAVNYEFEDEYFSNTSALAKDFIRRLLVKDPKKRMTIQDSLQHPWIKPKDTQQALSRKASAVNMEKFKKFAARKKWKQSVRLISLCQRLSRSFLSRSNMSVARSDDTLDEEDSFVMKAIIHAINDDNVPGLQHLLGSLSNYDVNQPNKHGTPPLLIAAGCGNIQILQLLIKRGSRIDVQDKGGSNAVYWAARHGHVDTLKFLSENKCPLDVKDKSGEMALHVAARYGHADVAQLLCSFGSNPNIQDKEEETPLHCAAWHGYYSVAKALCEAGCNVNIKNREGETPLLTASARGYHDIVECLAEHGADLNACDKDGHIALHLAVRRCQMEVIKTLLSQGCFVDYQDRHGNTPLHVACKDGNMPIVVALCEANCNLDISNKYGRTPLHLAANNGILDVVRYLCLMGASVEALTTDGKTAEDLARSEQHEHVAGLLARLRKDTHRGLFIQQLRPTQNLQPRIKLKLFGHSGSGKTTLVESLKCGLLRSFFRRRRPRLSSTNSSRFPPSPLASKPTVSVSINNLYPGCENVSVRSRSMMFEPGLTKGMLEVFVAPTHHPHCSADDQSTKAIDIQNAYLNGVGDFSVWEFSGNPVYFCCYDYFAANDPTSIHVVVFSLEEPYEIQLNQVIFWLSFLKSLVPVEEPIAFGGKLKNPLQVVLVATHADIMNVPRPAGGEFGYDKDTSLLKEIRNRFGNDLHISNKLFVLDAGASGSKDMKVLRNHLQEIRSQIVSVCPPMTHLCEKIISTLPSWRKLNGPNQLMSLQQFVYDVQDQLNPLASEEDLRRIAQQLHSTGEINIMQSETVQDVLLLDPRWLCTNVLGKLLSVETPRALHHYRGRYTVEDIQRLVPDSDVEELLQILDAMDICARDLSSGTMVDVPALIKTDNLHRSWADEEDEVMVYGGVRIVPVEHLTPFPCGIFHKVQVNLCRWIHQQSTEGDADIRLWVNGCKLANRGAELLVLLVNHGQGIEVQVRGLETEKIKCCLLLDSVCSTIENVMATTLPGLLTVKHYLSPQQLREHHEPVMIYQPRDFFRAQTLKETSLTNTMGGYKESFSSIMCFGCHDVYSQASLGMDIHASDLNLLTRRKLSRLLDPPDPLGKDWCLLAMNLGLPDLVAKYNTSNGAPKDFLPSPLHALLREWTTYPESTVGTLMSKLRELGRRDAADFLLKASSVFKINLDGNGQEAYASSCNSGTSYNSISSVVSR

[43] = target: MAP3K10 (human) (UniProt Q02779)

Sequence of NTRK1 (human) (P04629 whole entry, looked up): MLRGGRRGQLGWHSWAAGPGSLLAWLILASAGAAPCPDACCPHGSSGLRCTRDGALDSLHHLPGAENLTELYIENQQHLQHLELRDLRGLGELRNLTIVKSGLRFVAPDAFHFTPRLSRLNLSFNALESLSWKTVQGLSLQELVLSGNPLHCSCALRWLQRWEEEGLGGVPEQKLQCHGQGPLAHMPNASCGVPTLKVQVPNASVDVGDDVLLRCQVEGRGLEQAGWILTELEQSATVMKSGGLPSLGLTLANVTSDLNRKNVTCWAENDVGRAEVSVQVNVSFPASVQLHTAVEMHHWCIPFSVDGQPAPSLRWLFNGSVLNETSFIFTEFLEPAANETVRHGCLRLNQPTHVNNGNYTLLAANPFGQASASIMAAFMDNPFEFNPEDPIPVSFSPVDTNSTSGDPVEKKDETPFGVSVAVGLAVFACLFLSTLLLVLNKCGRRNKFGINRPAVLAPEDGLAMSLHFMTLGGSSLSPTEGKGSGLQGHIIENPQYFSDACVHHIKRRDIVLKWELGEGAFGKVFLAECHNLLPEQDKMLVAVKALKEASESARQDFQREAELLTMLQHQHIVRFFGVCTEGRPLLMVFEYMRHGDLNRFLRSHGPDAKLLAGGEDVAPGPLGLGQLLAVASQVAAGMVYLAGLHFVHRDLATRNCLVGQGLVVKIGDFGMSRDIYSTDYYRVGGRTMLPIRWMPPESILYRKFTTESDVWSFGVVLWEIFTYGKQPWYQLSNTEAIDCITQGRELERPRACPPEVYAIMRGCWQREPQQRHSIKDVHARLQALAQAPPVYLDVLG

CN(C)C/C=C/C(=O)Nc1cccc(C(=O)Nc2ccc(Nc3nccc(-c4c(-c5ccccc5)nn5ccccc45)n3)cc2)c1
kinase still bound, per cent of control ([1]; compound 1.0 µM): 30%
kinase still bound, per cent of control ([2]; compound 1.0 µM): 0.6%
kinase still bound, per cent of control ([3]; compound 1.0 µM): 10%
kinase still bound, per cent of control ([4]; compound 1.0 µM): 100%
kinase still bound, per cent of control ([5]; compound 1.0 µM): 39%
kinase still bound, per cent of control ([6]; compound 1.0 µM): 100%
kinase still bound, per cent of control ([7]; compound 1.0 µM): 89%
kinase still bound, per cent of control ([8]; compound 1.0 µM): 0%
kinase still bound, per cent of control ([9]; compound 1.0 µM): 0%
kinase still bound, per cent of control ([10]; compound 1.0 µM): 38%
kinase still bound, per cent of control ([11]; compound 1.0 µM): 40%
kinase still bound, per cent of control ([12]; compound 1.0 µM): 100%
kinase still bound, per cent of control ([13]; compound 1.0 µM): 80%
kinase still bound, per cent of control ([14]; compound 1.0 µM): 46%
kinase still bound, per cent of control ([15]; compound 1.0 µM): 0%
kinase still bound, per cent of control ([16]; compound 1.0 µM): 100%
kinase still bound, per cent of control ([17]; compound 1.0 µM): 77%
kinase still bound, per cent of control ([18]; compound 1.0 µM): 88%
kinase still bound, per cent of control ([19]; compound 1.0 µM): 100%
kinase still bound, per cent of control ([20]; compound 1.0 µM): 14%
kinase still bound, per cent of control ([21]; compound 1.0 µM): 100%
kinase still bound, per cent of control ([22]; compound 1.0 µM): 93%
kinase still bound, per cent of control ([23]; compound 1.0 µM): 12%
kinase still bound, per cent of control ([24]; compound 1.0 µM): 67%
kinase still bound, per cent of control ([25]; compound 1.0 µM): 1.6%
kinase still bound, per cent of control ([26]; compound 1.0 µM): 54%
kinase still bound, per cent of control ([27]; compound 1.0 µM): 0.75%
kinase still bound, per cent of control ([28]; compound 1.0 µM): 100%
Kd [29]: 240 nM
kinase still bound, per cent of control ([29]; compound 1.0 µM): 0%
kinase still bound, per cent of control ([30]; compound 1.0 µM): 100%
kinase still bound, per cent of control ([31]; compound 1.0 µM): 91%
kinase still bound, per cent of control ([32]; compound 1.0 µM): 85%
kinase still bound, per cent of control ([33]; compound 1.0 µM): 0.55%
kinase still bound, per cent of control ([34]; compound 1.0 µM): 73%
kinase still bound, per cent of control ([35]; compound 1.0 µM): 100%
kinase still bound, per cent of control ([36]; compound 1.0 µM): 90%
kinase still bound, per cent of control ([37]; compound 1.0 µM): 100%
kinase still bound, per cent of control ([38]; compound 1.0 µM): 93%
kinase still bound, per cent of control ([39]; compound 1.0 µM): 27%
kinase still bound, per cent of control ([40]; compound 1.0 µM): 6%
kinase still bound, per cent of control ([41]; compound 1.0 µM): 67%
kinase still bound, per cent of control ([42]; compound 1.0 µM): 94%
kinase still bound, per cent of control ([43]; compound 1.0 µM): 100%

Cc1cc(NC(=O)c2cccc(NC(=O)/C=C/CN(C)C)c2)ccc1Nc1nccc(-c2cccnc2)n1
kinase still bound, per cent of control ([1]; compound 1.0 µM): 87%
kinase still bound, per cent of control ([2]; compound 1.0 µM): 100%
kinase still bound, per cent of control ([3]; compound 1.0 µM): 64%
kinase still bound, per cent of control ([4]; compound 1.0 µM): 79%
kinase still bound, per cent of control ([5]; compound 1.0 µM): 100%
kinase still bound, per cent of control ([6]; compound 1.0 µM): 71%
kinase still bound, per cent of control ([7]; compound 1.0 µM): 100%
kinase still bound, per cent of control ([8]; compound 1.0 µM): 93%
kinase still bound, per cent of control ([9]; compound 1.0 µM): 0%
kinase still bound, per cent of control ([10]; compound 1.0 µM): 99%
kinase still bound, per cent of control ([11]; compound 1.0 µM): 67%
kinase still bound, per cent of control ([12]; compound 1.0 µM): 51%
kinase still bound, per cent of control ([13]; compound 1.0 µM): 94%
kinase still bound, per cent of control ([14]; compound 1.0 µM): 93%
kinase still bound, per cent of control ([15]; compound 1.0 µM): 93%
kinase still bound, per cent of control ([16]; compound 1.0 µM): 100%
kinase still bound, per cent of control ([17]; compound 1.0 µM): 93%
kinase still bound, per cent of control ([18]; compound 1.0 µM): 79%
kinase still bound, per cent of control ([19]; compound 1.0 µM): 100%
kinase still bound, per cent of control ([20]; compound 1.0 µM): 81%
kinase still bound, per cent of control ([21]; compound 1.0 µM): 69%
kinase still bound, per cent of control ([22]; compound 1.0 µM): 96%
kinase still bound, per cent of control ([23]; compound 1.0 µM): 70%
kinase still bound, per cent of control ([24]; compound 1.0 µM): 76%
kinase still bound, per cent of control ([25]; compound 1.0 µM): 71%
kinase still bound, per cent of control ([26]; compound 1.0 µM): 58%
kinase still bound, per cent of control ([27]; compound 1.0 µM): 100%
kinase still bound, per cent of control ([28]; compound 1.0 µM): 100%
kinase still bound, per cent of control ([29]; compound 1.0 µM): 80%
kinase still bound, per cent of control ([30]; compound 1.0 µM): 70%
kinase still bound, per cent of control ([31]; compound 1.0 µM): 100%
kinase still bound, per cent of control ([32]; compound 1.0 µM): 82%
kinase still bound, per cent of control ([33]; compound 1.0 µM): 81%
kinase still bound, per cent of control ([34]; compound 1.0 µM): 75%
kinase still bound, per cent of control ([35]; compound 1.0 µM): 100%
kinase still bound, per cent of control ([36]; compound 1.0 µM): 67%
kinase still bound, per cent of control ([37]; compound 1.0 µM): 100%
kinase still bound, per cent of control ([38]; compound 1.0 µM): 100%
kinase still bound, per cent of control ([39]; compound 1.0 µM): 56%
kinase still bound, per cent of control ([40]; compound 1.0 µM): 8.6%
kinase still bound, per cent of control ([41]; compound 1.0 µM): 75%
kinase still bound, per cent of control ([42]; compound 1.0 µM): 100%
kinase still bound, per cent of control ([43]; compound 1.0 µM): 87%

Cc1ccc(NC(=O)c2ccc(NC(=O)/C=C/CN(C)C)cc2)cc1Nc1nccc(-c2cccnc2)n1
kinase still bound, per cent of control ([1]; compound 10.0 µM): 95%
kinase still bound, per cent of control ([2]; compound 10.0 µM): 86%
kinase still bound, per cent of control ([3]; compound 10.0 µM): 100%
kinase still bound, per cent of control ([4]; compound 10.0 µM): 100%
kinase still bound, per cent of control ([5]; compound 10.0 µM): 85%
kinase still bound, per cent of control ([6]; compound 10.0 µM): 12%
kinase still bound, per cent of control ([7]; compound 10.0 µM): 100%
kinase still bound, per cent of control ([8]; compound 10.0 µM): 0.15%
Kd [9]: 290 nM
kinase still bound, per cent of control ([9]; compound 10.0 µM): 0%
kinase still bound, per cent of control ([10]; compound 10.0 µM): 91%
kinase still bound, per cent of control ([11]; compound 10.0 µM): 46%
kinase still bound, per cent of control ([12]; compound 10.0 µM): 93%
kinase still bound, per cent of control ([13]; compound 10.0 µM): 87%
kinase still bound, per cent of control ([14]; compound 10.0 µM): 97%
kinase still bound, per cent of control ([15]; compound 10.0 µM): 60%
kinase still bound, per cent of control ([16]; compound 10.0 µM): 100%
kinase still bound, per cent of control ([17]; compound 10.0 µM): 73%
kinase still bound, per cent of control ([18]; compound 10.0 µM): 100%
kinase still bound, per cent of control ([19]; compound 10.0 µM): 73%
kinase still bound, per cent of control ([20]; compound 10.0 µM): 47%
kinase still bound, per cent of control ([21]; compound 10.0 µM): 63%
kinase still bound, per cent of control ([22]; compound 10.0 µM): 72%
kinase still bound, per cent of control ([23]; compound 10.0 µM): 100%
kinase still bound, per cent of control ([24]; compound 10.0 µM): 93%
kinase still bound, per cent of control ([25]; compound 10.0 µM): 39%
kinase still bound, per cent of control ([26]; compound 10.0 µM): 33%
kinase still bound, per cent of control ([27]; compound 10.0 µM): 45%
kinase still bound, per cent of control ([28]; compound 10.0 µM): 76%
kinase still bound, per cent of control ([29]; compound 10.0 µM): 100%
kinase still bound, per cent of control ([30]; compound 10.0 µM): 76%
kinase still bound, per cent of control ([31]; compound 10.0 µM): 50%
kinase still bound, per cent of control ([32]; compound 10.0 µM): 86%
kinase still bound, per cent of control ([33]; compound 10.0 µM): 45%
kinase still bound, per cent of control ([34]; compound 10.0 µM): 13%
kinase still bound, per cent of control ([35]; compound 10.0 µM): 100%
kinase still bound, per cent of control ([36]; compound 10.0 µM): 81%
kinase still bound, per cent of control ([37]; compound 10.0 µM): 100%
kinase still bound, per cent of control ([38]; compound 10.0 µM): 92%
kinase still bound, per cent of control ([39]; compound 10.0 µM): 43%
kinase still bound, per cent of control ([40]; compound 10.0 µM): 9.2%
kinase still bound, per cent of control ([41]; compound 10.0 µM): 8%
kinase still bound, per cent of control ([42]; compound 10.0 µM): 72%
kinase still bound, per cent of control ([43]; compound 10.0 µM): 100%
